According to US10065972B2, “Bicyclic or tricyclic heterocyclic compound” (MITSUBISHI TANABE PHARMA CORPORATION, priority 2014, dated 2018):

Target: human recombinant KAT-II (Homo sapiens (Human), UniProt Q8N5Z0)
Test: KAT-II inhibitory test
Format: biochemical
Settings: 3.0 μmol/L kynurenine, 37° C., 1 hr, pH 8.0; kynurenic acid quantified by HPLC
Summary of the method: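 E. coli-expressed His/MBP-tagged human KAT-II (2.0 ng/μL) incubated with 3.0 μmol/L kynurenine and 10 μmol/L pyridoxal phosphate in Tris-acetate pH 8.0, 1 hr at 37 °C. Reaction stopped with TCA. Kynurenic acid quantified by reversed-phase HPLC with fluorescence detection (ex 354/em 460 nm), duplicate at each concentration.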

Sequence of human recombinant KAT-II (Q8N5Z0 30-425): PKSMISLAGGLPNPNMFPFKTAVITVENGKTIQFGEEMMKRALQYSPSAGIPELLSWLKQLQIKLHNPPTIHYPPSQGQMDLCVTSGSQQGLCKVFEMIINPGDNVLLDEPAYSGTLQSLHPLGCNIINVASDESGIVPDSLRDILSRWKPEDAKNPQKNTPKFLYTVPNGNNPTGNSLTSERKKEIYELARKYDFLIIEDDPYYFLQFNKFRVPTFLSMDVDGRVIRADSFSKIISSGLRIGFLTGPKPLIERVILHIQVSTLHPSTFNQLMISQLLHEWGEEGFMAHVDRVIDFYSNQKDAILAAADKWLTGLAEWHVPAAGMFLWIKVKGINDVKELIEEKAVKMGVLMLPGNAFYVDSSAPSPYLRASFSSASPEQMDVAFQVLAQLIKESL

Row | IC50 [nM] | SMILES
1 | 15 | CC(=O)c1nc2sc(N3CCC[C@@H]3C(=O)NCc3ccccc3)nc2c(=O)n1C [Example 411, (R)-1-(5-acetyl-6-methyl-7-oxo-6,7-dihydro[1,3]thiazolo[5,4-d]pyrimidin-2-yl)-N-benzylpyrrolidine-2-carboxamide]
2 | 41 | Cc1ccc(-c2nc3sc(N4CCC[C@@H]4C(=O)NCc4ccccc4)nc3c(=O)[nH]2)s1 [Example 500, (R)-N-benzyl-1-[5-(5-methylthiophen-2-yl)-7-oxo-6,7-dihydro[1,3]thiazolo[5,4-d]pyrimidin-2-yl]pyrrolidine-2-carboxamide]
3 | 22 | O=C(NCc1ccccc1)[C@H]1CCCN1c1nc2c(=O)[nH]c(C(F)F)nc2s1 [Example 539, (R)-N-benzyl-1-(5-difluoromethyl-7-oxo-6,7-dihydro[1,3]thiazolo[5,4-d]pyrimidin-2-yl)pyrrolidine-2-carboxamide]
4 | 35 | Cn1c(C2(C#N)CC2)nc2sc(N3CCC[C@@H]3C(=O)NCc3ccccc3)nc2c1=O [Example 573, (R)-N-benzyl-1-[5-(1-cyanocyclopropyl)-6-methyl-7-oxo-6,7-dihydro[1,3]thiazolo[5,4-d]pyrimidin-2-yl]pyrrolidine-2-carboxamide]
5 | 19 | CCc1nc2sc(N3CCC[C@@H]3C(=O)COc3ccccc3)nc2c(=O)n1C [Example 575, 5-ethyl-6-methyl-2-[(R)-2-(2-phenoxyacetyl)pyrrolidin-1-yl][1,3]thiazolo[5,4-d]pyrimidin-7(6H)-one]
6 | 28 | COC1CN(c2nc3sc(N4CCC[C@@H]4C(=O)COc4ccccc4)nc3c(=O)n2C)C1 [Example 578, 5-(3-methoxyazetidin-1-yl)-6-methyl-2-[(R)-2-(2-phenoxyacetyl)pyrrolidin-1-yl][1,3]thiazolo[5,4-d]pyrimidin-7(6H)-one]
7 | 10 | CCc1nc2sc(N3CCC[C@@H]3C(=O)CNc3ccccc3)nc2c(=O)n1C [Example 579, 5-ethyl-6-methyl-2-[(R)-2-(2-phenylaminoacetyl)pyrrolidin-1-yl][1,3]thiazolo[5,4-d]pyrimidin-7(6H)-one]
8 | 280 | CN1CCn2c(nc3sc(N4CCC[C@@H]4C(=O)NCc4ccccc4)nc3c2=O)C1 [Example 590, (R)-N-benzyl-1-(6-methyl-10-oxo-5,7,8,10-tetrahydro-6H-pyrazino[1,2-a][1,3]thiazolo[5,4-d]pyrimidin-2-yl)pyrrolidine-2-carboxamide]
9 | 140 | C[C@@H]1CN(C)Cc2nc3sc(N4CCC[C@@H]4C(=O)NCc4ccccc4)nc3c(=O)n21 [Example 601, (R)-N-benzyl-1-[(R)-6,8-dimethyl-10-oxo-5,7,8,10-tetrahydro-6H-pyrazino[1,2-a][1,3]thiazolo[5,4-d]pyrimidin-2-yl]pyrrolidine-2-carboxamide]
10 | 31 | CN1CCn2c1nc1sc(N3CCC[C@@H]3C(=O)NCc3ccccc3)nc1c2=O [Example 602, (R)-N-benzyl-1-(5-methyl-9-oxo-5,6,7,9-tetrahydroimidazo[1,2-a][1,3]thiazolo[5,4-d]pyrimidin-2-yl)pyrrolidine-2-carboxamide]
11 | 8.2 | O=C(NCc1ccccc1)[C@H]1CCCN1c1nc2c(=O)n3c(nc2s1)C(F)(F)CCC3 [Example 605, (R)-N-benzyl-1-(5,5-difluoro-10-oxo-5,7,8,10-tetrahydro-6H-pyrido[1,2-a][1,3]thiazolo[5,4-d]pyrimidin-2-yl)pyrrolidine-2-carboxamide]
12 | 7.6 | CC(C)(O)c1nc2sc(N3CCC[C@@H]3C(=O)NCc3ccccc3)nc2c(=O)[nH]1 [Example 606, (R)-N-benzyl-1-[5-(2-hydroxypropan-2-yl)-7-oxo-6,7-dihydro[1,3]thiazolo[5,4-d]pyrimidin-2-yl]pyrrolidine-2-carboxamide]
13 | 52 | CCc1nn(CC)c(=O)c2nc(N3CCC[C@@H]3C(=O)NCc3ccccc3)sc12 [Example 612, (R)-N-benzyl-1-(5,7-diethyl-4-oxo-4,5-dihydro[1,3]thiazolo[4,5-d]pyridazin-2-yl)pyrrolidine-2-carboxamide]

The next lines start with the molecule.

Row | SMILES | IC50 [nM]
14 | COc1ccc(Cn2c(C(C)(C)F)nc3sc(N4CCC[C@@H]4C(=O)NCc4ccccc4)nc3c2=O)c(OC)c1 [Example 414, (R)-N-benzyl-1-[6-(2,4-dimethoxybenzyl)-5-(2-fluoropropan-2-yl)-7-oxo-6,7-dihydro[1,3]thiazolo[5,4-d]pyrimidin-2-yl]pyrrolidine-2-carboxamide] | 43
15 | CC(C)c1nc2sc(N(C)[C@H](C)C(=O)NCc3ccccc3)nc2c(=O)[nH]1 [Example 486, (R)-N-benzyl-2-{N′-[5-(propan-2-yl)-7-oxo-6,7-dihydro[1,3]thiazolo[5,4-d]pyrimidin-2-yl]-N′-methylamino}propionamide] | 15
16 | O=C(NCc1ccccc1)[C@H]1CCCN1c1nc2c(=O)[nH]c(-c3ccccc3F)nc2s1 [Example 489, (R)-N-benzyl-1-[5-(2-fluorophenyl)-7-oxo-6,7-dihydro[1,3]thiazolo[5,4-d]pyrimidin-2-yl]pyrrolidine-2-carboxamide] | 6
17 | C[C@@H](NC(=O)[C@H]1CCCN1c1nc2c(=O)[nH]c(-c3ccc(F)cc3F)nc2s1)c1ccccc1 [Example 499, (R)-1-[5-(2,4-difluorophenyl)-7-oxo-6,7-dihydro[1,3]thiazolo[5,4-d]pyrimidin-2-yl]N-((R)-1-phenylethyl)pyrrolidine-2-carboxamide] | 7.1
18 | Cc1cc(F)c(-c2nc3sc(N4CCC[C@@H]4C(=O)NCc4ccccc4)nc3c(=O)[nH]2)s1 [Example 501, (R)-N-benzyl-1-[5-(3-fluoro-5-methylthiophen-2-yl)-7-oxo-6,7-dihydro[1,3]thiazolo[5,4-d]pyrimidin-2-yl]pyrrolidine-2-carboxamide] | 17
19 | O=C(NCc1ccccc1)[C@H]1CCCN1c1nc2c(=O)[nH]c(C(F)(F)c3ccccc3)nc2s1 [Example 524, (R)-N-benzyl-1-{5-[difluoro(phenyl)methyl]-7-oxo-6,7-dihydro[1,3]thiazolo[5,4-d]pyrimidin-2-yl}pyrrolidine-2-carboxamide] | 4
20 | O=C(NCc1ccccc1)[C@H]1CCCN1c1nc2c(=O)[nH]c(C(F)(F)CCS(=O)(=O)c3ccccc3)nc2s1 [Example 530, (R)-N-benzyl-1-[5-(3-benzenesulfonyl-1,1-difluoropropyl)-7-oxo-6,7-dihydro-[1,3]thiazolo[5,4-d]pyrimidin-2-yl]pyrrolidine-2-carboxamide] | 19
21 | C[C@H](C(=O)NCc1ccccc1)N(C)c1nc2c(=O)[nH]c(-c3ccccc3F)nc2s1 [Example 532, (R)-N-benzyl-2-{N′-[5-(2-fluorophenyl)-7-oxo-6,7-dihydro[1,3]thiazolo[5,4-d]pyrimidin-2-yl]-N′-methylamino}propionamide] | 17
22 | O=C(NCc1ccccc1)[C@H]1CCCN1c1nc2c(=O)[nH]c(C(F)(F)F)nc2s1 [Example 536, (R)-N-benzyl-1-(7-oxo-5-trifluoromethyl-6,7-dihydro[1,3]thiazolo[5,4-d]pyrimidin-2-yl)pyrrolidine-2-carboxamide] | 6.9
23 | O=C(NCc1ccccc1)[C@H]1CCCN1c1nc2c(=O)[nH]c(N3CCC[C@H]3C(F)(F)F)nc2s1 [Example 553, (R)-N-benzyl-1-{7-oxo-5-[(S)-2-(trifluoromethyl)pyrrolidin-1-yl]-6,7-dihydro[1,3]thiazolo[5,4-d]pyrimidin-2-yl}pyrrolidine-2-carboxamide] | 43
24 | O=C(NCc1ccccc1)[C@H]1CCCN1c1nc2c(=O)[nH]c(OCC(F)(F)F)nc2s1 [Example 555, (R)-N-benzyl-1-[7-oxo-5-(2,2,2-trifluoroethoxy)-6,7-dihydro[1,3]thiazolo[5,4-d]pyrimidin-2-yl]pyrrolidine-2-carboxamide] | 1100
25 | COCc1nc2sc(N3CCC[C@@H]3C(=O)NCc3ccccc3)nc2c(=O)n1C1CCOCC1 [Example 565, (R)-N-benzyl-1-[5-methoxymethyl-7-oxo-6-(tetrahydro-2H-pyran-4-yl)-6,7-dihydro[1,3]thiazolo[5,4-d]pyrimidin-2-yl]pyrrolidine-2-carboxamide] | 10
26 | Cn1c(C2CC2)nc2sc(N3CC(F)(F)C[C@@H]3C(=O)NCc3ccccc3)nc2c1=O [Example 572, (R)-N-benzyl-1-(5-cyclopropyl-6-methyl-7-oxo-6,7-dihydro[1,3]thiazolo[5,4-d]pyrimidin-2-yl)-4,4-difluoropyrrolidine-2-carboxamide] | 86
27 | O=C(NCc1ccccc1)[C@H]1CCCN1c1nc2c(=O)[nH]c(-c3c(F)cccc3F)nc2s1 [Example 583, (R)-N-benzyl-1-[5-(2,6-difluorophenyl)-7-oxo-6,7-dihydro[1,3]thiazolo[5,4-d]pyrimidin-2-yl]pyrrolidine-2-carboxamide] | 9
28 | Cc1noc(-c2nc3sc(N4CCC[C@@H]4C(=O)NCc4ccccc4)nc3c(=O)[nH]2)n1 [Example 585, (R)-N-benzyl-1-[5-(3-methyl-[1,2,4]oxadiazol-5-yl)-7-oxo-6,7-dihydro[1,3]thiazolo[5,4-d]pyrimidin-2-yl]pyrrolidine-2-carboxamide] | 12
29 | O=C(NCc1ccccc1)[C@H]1CCCN1c1nc2c(=O)n3c(nc2s1)CN(CC(F)F)CC3 [Example 593, (R)-N-benzyl-1-[6-(2,2-difluoroethyl)-10-oxo-5,7,8,10-tetrahydro-6H-pyrazino[1,2-a][1,3]thiazolo[5,4-d]pyrimidin-2-yl]pyrrolidine-2-carboxamide] | 51
30 | Cn1c(-c2ccccc2)nc2sc(N3CC[C@@H](N)[C@@H]3C(=O)NCc3ccccc3)nc2c1=O [Example 611, (2R,3R)-3-amino-N-benzyl-1-(6-methyl-7-oxo-5-phenyl-6,7-dihydro[1,3]thiazolo[5,4-d]pyrimidin-2-yl)pyrrolidine-2-carboxamide] | 570
31 | CCc1nn(C2CCOCC2)c(=O)c2nc(N3CCC[C@@H]3C(=O)NCc3ccccc3)sc12 [Example 613, (R)-N-benzyl-1-[7-ethyl-4-oxo-5-(tetrahydro-2H-pyran-4-yl)-4,5-dihydro[1,3]thiazolo[4,5-d]pyridazin-2-yl]pyrrolidine-2-carboxamide] | 22
